Reference: patent US12655116B2, “Substituted isophthalic acid diamides” (Bayer Aktiengesellschaft, priority 2020, dated 2026)

How the values were obtained:
DIGSA [1] = test: Pre-emergence herbicidal action against DIGSA; type: in vivo, Digitaria sanguinalis
Procedure, shortened: (§1)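 Seeds sown in sandy loam, soil-covered; compound sprayed on soil surface pre-emergence. Application: WP/EC, 600–800 l/ha, 0.2% wetting agent. Readout: visual % damage at 3 weeks.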

SETVI [2] = test: Pre-emergence herbicidal action against SETVI; type: in vivo, Setaria viridis
Procedure, shortened: as §1

DIGSA [3] = test: Post-emergence herbicidal action against DIGSA; type: in vivo, Digitaria sanguinalis; settings: for Post-emergence action against DIGSA in %: 5 g/ha; for Post-emergence action against DIGSA: 20 g/ha
Procedure, shortened: (§2)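 Percent herbicidal action is rated by eye about 3 weeks after treatment against untreated controls, where 100% means dead plants and 0% means like controls. Plants in sandy loam are sprayed on green parts at the one-leaf stage with aqueous WP or EC preparations at 600 to 800 l/ha plus 0.2% wetting agent.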

AMARE [4] = test: Post-emergence herbicidal action against AMARE; type: in vivo, Amaranthus retroflexus; settings: 20 g/ha, visual assessment about 3 weeks after treatment, 100% = plants have died, 0% = like control plants
Procedure, shortened: as §2

ALOMY [5] = test: Pre-emergence herbicidal action against ALOMY; type: in vivo, Alopecurus myosuroides; settings: for Pre-emergence action against ALOMY (herbicidal activity): 80 g/ha, scored visually after 3 weeks vs untreated controls (100% = plants have died, 0% = like control plants)
Procedure, shortened: as §1

AMARE [6] = test: Pre-emergence herbicidal action against AMARE; type: in vivo, Amaranthus retroflexus
Procedure, shortened: as §1

PHBPU [7] = test: Post-emergence herbicidal action against PHBPU; type: in vivo, Pharbitis purpurea; settings: dosage 20 g/ha
Procedure, shortened: as §2

AVEFA = test: Pre-emergence herbicidal action against AVEFA; type: in vivo, Avena fatua; settings: 80 g/ha, pre-emergence
Procedure, shortened: as §1

ECHCG [8] = test: Pre-emergence herbicidal action against ECHCG; type: in vivo, Echinochloa crus-galli
Procedure, shortened: as §1

ECHCG [9] = test: Post-emergence herbicidal action against ECHCG; type: in vivo, Echinochloa crus-galli
Procedure, shortened: as §2

ABUTH [10] = test: Pre-emergence herbicidal action against ABUTH; type: in vivo, Abutilon theophrasti; settings: for Pre-emergence action against ABUTH (herbicidal activity): 80 g/ha, scored visually after 3 weeks vs untreated controls (100% = plants have died, 0% = like control plants); for Pre-emergence action against ABUTH (herbicidal activity in percent): dosage 20 g/ha, scored visually after 3 weeks vs untreated controls, 100% = plants have died, 0% = like control plants
Procedure, shortened: as §1

ABUTH [11] = test: Post-emergence herbicidal action against ABUTH; type: in vivo, Abutilon theophrasti; settings: visual assessment about 3 weeks after treatment vs untreated controls
Procedure, shortened: as §2

PHBPU [12] = test: Pre-emergence herbicidal action against PHBPU; type: in vivo, Pharbitis purpurea
Description: Seeds of monocotyledonous and dicotyledonous weed plants and crop plants are laid out in sandy loam soil in wood-fiber pots and covered with soil. The compounds of the invention, formulated in the form of wettable powders (WP) or as emulsion concentrates (EC), are then applied to the surface of the covering soil in the form of an aqueous suspension or emulsion at a water application rate equivalent to 600 to 800 l/ha, with addition of 0.2% wetting agent. After the treatment, the pots are placed in a greenhouse and kept under good growth conditions for the trial plants. The damage to the test plants is scored visually after a test period of 3 weeks by comparison with untreated controls (herbicidal activity in percent (%): 100% activity=the plants have died, 0% activity=like control plants). […] The tables below illustrate, in an illustrative manner, the post-emergence herbicidal action of the compounds of the invention, the herbicidal activity being stated in percent.

VIOTR [13] = test: Pre-emergence herbicidal action against VIOTR; type: in vivo, Viola tricolor
Procedure, shortened: as §1

MATIN [14] = test: Pre-emergence herbicidal action against MATIN; type: in vivo, Matricaria inodora
Procedure, shortened: as §1

VERPE = test: Pre-emergence herbicidal action against VERPE; type: in vivo, Veronica persica
Procedure, shortened: as §1

MATIN [15] = test: Post-emergence herbicidal action against MATIN; type: in vivo, Matricaria inodora
Procedure, shortened: as §2

SETVI [16] = test: Post-emergence herbicidal action against SETVI; type: in vivo, Setaria viridis
Procedure, shortened: as §2

ALOMY [17] = test: Post-emergence herbicidal action against ALOMY; type: in vivo, Alopecurus myosuroides; settings: visual assessment about 3 weeks after treatment vs untreated controls
Procedure, shortened: as §2

VIOTR [18] = test: Post-emergence herbicidal action against VIOTR; type: in vivo, Viola tricolor
Procedure, shortened: as §2

[19] = 20 g/ha, scored visually after 3 weeks vs untreated controls, 100% = plants have died, 0% = like control plants
[20] = 80 g/ha, scored visually after 3 weeks vs untreated controls (100% = plants have died, 0% = like control plants)

Row | SMILES | Pre-emergence action against DIGSA in % (DIGSA [1]; dosage 80 g/ha) [%] | Pre-emergence action against SETVI in % (SETVI [2]; dosage 80 g/ha) [%] | Post-emergence action at 20 g/ha against AMARE in % (AMARE [4]) [%] | Pre-emergence action against ALOMY (herbicidal activity) (ALOMY [5]) [%] | Pre-emergence action against AMARE in % (AMARE [6]; [19]) [%] | Pre-emergence action against AMARE in % (AMARE [6]; [20]) [%] | Post-emergence action against PHBPU in % (PHBPU [7]) [%] | Pre-emergence action against AVEFA in % (AVEFA) [%] | Pre-emergence action against ECHCG in % (ECHCG [8]; 80 g/ha) [%] | Post-emergence action against ECHCG in % (ECHCG [9]; dosage 20 g/ha) [%] | Pre-emergence action against ABUTH (herbicidal activity) (ABUTH [10]) [%] | Post-emergence action against ABUTH in % (ABUTH [11]; dosage 5 g/ha) [%] | Post-emergence action against ABUTH in % (ABUTH [11]; dosage 20 g/ha) [%] | Pre-emergence action against PHBPU in % (PHBPU [12]; dosage 80 g/ha) [%] | Pre-emergence action against VIOTR in % (VIOTR [13]; dosage 20 g/ha) [%] | Pre-emergence action against VIOTR in % (VIOTR [13]; dosage 80 g/ha) [%] | Pre-emergence action against MATIN in % (MATIN [14]; dosage 80 g/ha) [%] | Post-emergence action against SETVI in % (SETVI [16]; dosage 20 g/ha) [%] | Post-emergence action against ALOMY in % (ALOMY [17]; dosage 20 g/ha) [%] | Pre-emergence action against ABUTH (herbicidal activity in percent) (ABUTH [10]) [%] | also measured
1 | Cc1nnc(NC(=O)c2ccc(C(F)(F)F)c(C(=O)NC3CCC3)c2C)o1 [Example 6-256] | 100 | 100 | 90 | 90 | 90 | 100 | 90 | 80 | 100 | 90 | 100 | 80 | 90 | 80 | 90 | 90 | 90 |  |  |  | Pre-emergence action against DIGSA in % (DIGSA [1]; dosage 20 g/ha): 90%; Pre-emergence action against SETVI in % (SETVI [2]; dosage 20 g/ha): 80%; Post-emergence action against DIGSA in % (DIGSA [3]): 80%; Post-emergence action against DIGSA (DIGSA [3]): 90%; Pre-emergence action against ALOMY (ALOMY [5]; 20 g/ha, scored visually after 3 weeks, 100% = plants have died, 0% = like control plants): 80%; Pre-emergence action against ECHCG in % (ECHCG [8]; 20 g/ha): 80%; Post-emergence action against ECHCG in % (ECHCG [9]; dosage 5 g/ha): 90%; Pre-emergence action against VERPE in % (VERPE; dosage 20 g/ha): 80%; Pre-emergence action against VERPE in % (VERPE; dosage 80 g/ha): 80%
2 | CCn1nnnc1NC(=O)c1ccc(Br)c(C(=O)NCC(F)(F)F)c1Cl [Example 2-181] | 100 | 100 |  | 80 | 100 | 100 | 90 | 90 | 100 | 90 | 100 |  |  | 80 |  | 80 | 100 | 90 | 90 | 100 | Post-emergence action against MATIN in % (MATIN [15]; dosage 5 g/ha): 80%; Post-emergence action against MATIN in % (MATIN [15]; dosage 20 g/ha): 90%; Pre-emergence action against MATIN in % (MATIN [14]; dosage 20 g/ha): 90%; Pre-emergence action against VERPE in % (VERPE; dosage 80 g/ha): 100%
3 | CCn1nnnc1NC(=O)c1ccc(Br)c(C(=O)NC(C)C)c1Cl [Example 2-185] |  | 100 | 100 | 90 | 100 | 100 |  | 100 | 90 | 100 | 100 | 90 | 100 | 100 | 80 | 100 | 100 | 80 | 90 | 100 | Post-emergence action against MATIN in % (MATIN [15]; dosage 5 g/ha): 80%; Post-emergence action against MATIN in % (MATIN [15]; dosage 20 g/ha): 90%; Post-emergence action against VIOTR in % (VIOTR [18]; 5 g/ha): 100%; Post-emergence action against VIOTR in % (VIOTR [18]; 20 g/ha): 100%; Pre-emergence action against MATIN in % (MATIN [14]; dosage 20 g/ha): 100%
4 | Cn1nnnc1NC(=O)c1ccc(C(F)(F)F)c(C(=O)NCC2CC2)c1Br [Example 1-210] | 100 | 100 |  | 80 | 100 | 100 | 100 | 90 | 100 | 80 | 100 | 80 | 90 | 80 | 100 | 100 | 100 | 90 | 100 | 100 | Pre-emergence action against DIGSA in % (DIGSA [1]; dosage 20 g/ha): 100%; Post-emergence action against MATIN in % (MATIN [15]; dosage 5 g/ha): 80%; Post-emergence action against MATIN in % (MATIN [15]; dosage 20 g/ha): 90%; Post-emergence action against SETVI in % (SETVI [16]; dosage 5 g/ha): 80%; Post-emergence action against DIGSA in % (DIGSA [3]): 80%; Post-emergence action against DIGSA (DIGSA [3]): 90%; Post-emergence action against ALOMY in % (ALOMY [17]; dosage 5 g/ha): 80%; Pre-emergence action against ECHCG in % (ECHCG [8]; 20 g/ha): 80%; Post-emergence action against VIOTR in % (VIOTR [18]; 20 g/ha): 90%; Pre-emergence action against MATIN in % (MATIN [14]; dosage 20 g/ha): 100%; Pre-emergence action against VERPE in % (VERPE; dosage 80 g/ha): 80%
5 | CCn1nnnc1NC(=O)c1ccc(C(F)(F)F)c(C(=O)NCC2CC2)c1Br [Example 2-210] | 100 | 100 | 100 | 100 | 100 | 100 | 90 | 90 | 100 | 90 | 100 | 80 | 80 | 90 | 100 | 100 | 100 | 80 | 90 | 100 | Pre-emergence action against DIGSA in % (DIGSA [1]; dosage 20 g/ha): 100%; Post-emergence action against MATIN in % (MATIN [15]; dosage 20 g/ha): 90%; Post-emergence action against DIGSA in % (DIGSA [3]): 80%; Post-emergence action against DIGSA (DIGSA [3]): 90%; Pre-emergence action against ECHCG in % (ECHCG [8]; 20 g/ha): 80%; Pre-emergence action against PHBPU in % (PHBPU [12]; dosage 20 g/ha): 80%; Post-emergence action against VIOTR in % (VIOTR [18]; 20 g/ha): 90%; Pre-emergence action against MATIN in % (MATIN [14]; dosage 20 g/ha): 100%
6 | COCCNC(=O)c1c(Br)ccc(C(=O)Nc2nnnn2C)c1Cl [Example 1-186] |  | 80 | 100 | 90 | 80 | 100 |  |  | 80 | 90 | 100 | 90 | 90 | 80 |  |  | 90 | 80 | 90 | 100 | Post-emergence action against ALOMY in % (ALOMY [17]; dosage 5 g/ha): 80%
